From PubChem BioAssay AID1963979 (Molecular Pharmacology Branch, DTP, NCI, 2024)
One block for each compound: values may come before it.

System: 361931-004-R-J1-PDC multicell spheroid viability
Assay: Anticancer human tumor 361931-004-R-J1-PDC patient-derived colon adenocarcinoma cell line growth inhibition [PI3K]
Conditions: for viability, T/C: stronger effect = lower value
Excerpt: Combinatorial screen of targeted agents with the PI3K inhibitors inavolisib, alpelisib, duvelisib, and copanlisib in multi-cell type tumor spheroids
A high-throughput screen of multi-cell type tumor spheroids was designed to identify active combinations of targeted small molecules and PI3K pathway inhibitors. Complex spheroids include a stromal component modeled by human endothelial cells (HUVEC) and fibroblasts modeled by human mesenchymal stem cells (MSCs). The concentration ranges selected for each drug and investigational agent were based upon clinically achievable concentrations if the clinical Cmax of the agent was known.
Compounds. The drugs and investigational agents: inavolisib (NSC800729), alpelisib (NSC765974), duvelisib (NSC772469), copanlisib (NSC816437), ipatasertib (NSC767898), afuresertib (NSC778305), talazoparib (NSC767125), sapanisertib (NSC764658), selumetinib (NSC741078), tovorafenib (DAY101, NSC766906), vemurafenib (NSC761431), ravoxertinib (NSC781343), sotorasib (NSC818433), MRTX1133 (NSC 836407), abemaciclib (NSC 768073), palbociclib (NSC758247), venetoclax (NSC 766270), SY5609 (NSC837396), enzalutamide (NSC755605), and darolutamide (NSC825331), were obtained from the National Cancer Institute (NCI) Developmental Therapeutics Program Chemical Repository. The FDA-approved anticancer drug set is available from the NCI Developmental Therapeutics Program. […] The stock solutions were prepared in dimethyl sulfoxide (DMSO, Sigma-Aldrich, St. Louis, MO, cat. D2650) at 800-fold the tested concentration and stored at -70 degrees C prior to their use. All drugs and investigational agents were tested over a range starting from a high concentration at or near the clinical Cmax and decreasing in half-log increments. If the clinical Cmax for an agent had not been determined, the highest concentration tested was 10 microM.
Cell Culture. All cells were maintained in an incubator at 37 degrees C and 5% CO2 with 95% humidity. The PDC lines were cultured according to standard operating procedures established by the NCI PDMR (https://pdmr.cancer.gov/sops/default.htm). All PDCs were thawed and cultured in Matrigel-coated flasks prepared with a working solution of 1X Ham's F-12 nutrient mix, without supplementation (Invitrogen, Waltham, MA, cat. 11765054), 100 U/mL penicillin-streptomycin (Invitrogen, cat. 15140122), and 2.5% Matrigel (Corning Inc., Corning, NY, cat. 354248) for the first three passages. The 354836-022-R-J1-PDC, 475296-252-R-J1-PDC, and 997726-040-R-J2-PDC lines were cultured in 6A media, which includes advanced DMEM/F-12 (Thermo Fisher Scientific, cat. 12634028), 10 mM HEPES (Thermo Fisher Scientific, cat. 15630080), 1X GlutaMAX supplement (Thermo Fisher Scientific, cat. 35050061), 0.1 mg/mL primocin (InvivoGen, San Diego, CA, cat. ant-pm-2), 10% defined fetal bovine serum, heat inactivated (HyClone Laboratories Inc., Logan, UT, cat. SH30070.03HI), 50% L-WRN conditioned media (ATCC, cat. CRL-3276), 1.25 mM N-Acetyl-L-cysteine (Sigma-Aldrich, cat. A9165), 10 mM nicotinamide (Sigma-Aldrich, cat. N0636), 1X B-27 supplement (Thermo Fisher Scientific, cat. 17504044), 1X N-2 supplement (Thermo Fisher Scientific, cat. 17502048), and 10 microM Y-27632 dihydrochloride (Tocris Bioscience, Bristol, United Kingdom, cat. 1254). The 624824-186-R-J2-PDC line was cultured in 6C/Colon 1B media, which includes all 6A media components plus 50 ng/mL human EGF recombinant protein (Thermo Fisher Scientific, cat. PHG0311). […]

[1] = curve of first compound, second compound 0.00316 µM
[2] = curve of first compound, second compound 0.01 µM
[3] = curve of first compound, second compound 0.0316 µM
[4] = curve of first compound, second compound 0.1 µM
[5] = curve of first compound, second compound 0.316 µM
[6] = curve of first compound, second compound 1 µM
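Further: spheroids exposed to agents for seven days before readout.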

- IC50 (curve of compound): 5.63 µM [middle of 4 runs]
Structure (SMILES): CC1(C)CCC(Nc2ncc(C(F)(F)F)c(-c3c[nH]c4c(P(C)(C)=O)c(C#N)ccc34)n2)CN1 (configuration not stated)
- viability, T/C (compound 0.1 µM): 94.6% [middle of 4 runs]
- viability, T/C (compound 10 µM): 12.9% [middle of 4 runs]

- IC50 [1]: > 10000 nM
- IC50 [2]: > 10000 nM
- IC50 [3]: > 10000 nM
- IC50 [4]: > 10000 nM
- IC50 [5]: > 10000 nM
- IC50 [6]: > 10000 nM
Structure (SMILES): CNC(=O)c1ccc(N2C(=S)N(c3ccc(C#N)c(C(F)(F)F)c3)C(=O)C2(C)C)cc1F + CC(Nc1ccc2c(c1)OCCn1cc(N3C(=O)OCC3C(F)F)nc1-2)C(N)=O
- viability, T/C (second compound 0.00316 µM, first compound 0.0316 µM): 110%
- viability, T/C (second compound 0.00316 µM, first compound 0.1 µM): 101%
- viability, T/C (second compound 0.00316 µM, first compound 0.316 µM): 101%
- viability, T/C (second compound 0.00316 µM, first compound 1 µM): 92.8%
- viability, T/C (second compound 0.00316 µM, first compound 3.16 µM): 110%
- viability, T/C (second compound 0.00316 µM, first compound 10 µM): 93.7%
- viability, T/C (second compound 0.01 µM, first compound 0.0316 µM): 109%
- viability, T/C (second compound 0.01 µM, first compound 0.1 µM): 102%
- viability, T/C (second compound 0.01 µM, first compound 0.316 µM): 85.2%
- viability, T/C (second compound 0.01 µM, first compound 1 µM): 104%
- viability, T/C (second compound 0.01 µM, first compound 3.16 µM): 103%
- viability, T/C (second compound 0.01 µM, first compound 10 µM): 90.4%
- viability, T/C (second compound 0.0316 µM, first compound 0.0316 µM): 107%
- viability, T/C (second compound 0.0316 µM, first compound 0.1 µM): 103%
- viability, T/C (second compound 0.0316 µM, first compound 0.316 µM): 105%
- viability, T/C (second compound 0.0316 µM, first compound 1 µM): 102%
- viability, T/C (second compound 0.0316 µM, first compound 3.16 µM): 105%
- viability, T/C (second compound 0.0316 µM, first compound 10 µM): 82.4%
- viability, T/C (second compound 0.1 µM, first compound 0.0316 µM): 94.6%
- viability, T/C (second compound 0.1 µM, first compound 0.1 µM): 99.1%
- viability, T/C (second compound 0.1 µM, first compound 0.316 µM): 93.1%
- viability, T/C (second compound 0.1 µM, first compound 1 µM): 100%
- viability, T/C (second compound 0.1 µM, first compound 3.16 µM): 97.4%
- viability, T/C (second compound 0.1 µM, first compound 10 µM): 86.4%
- viability, T/C (second compound 0.316 µM, first compound 0.0316 µM): 88.1%
- viability, T/C (second compound 0.316 µM, first compound 0.1 µM): 94%
- viability, T/C (second compound 0.316 µM, first compound 0.316 µM): 88.6%
- viability, T/C (second compound 0.316 µM, first compound 1 µM): 87.9%
- viability, T/C (second compound 0.316 µM, first compound 3.16 µM): 87.5%
- viability, T/C (second compound 0.316 µM, first compound 10 µM): 76%
- viability, T/C (second compound 1 µM, first compound 0.0316 µM): 75.9%
- viability, T/C (second compound 1 µM, first compound 0.1 µM): 82.1%
- viability, T/C (second compound 1 µM, first compound 0.316 µM): 79.3%
- viability, T/C (second compound 1 µM, first compound 1 µM): 78%
- viability, T/C (second compound 1 µM, first compound 3.16 µM): 76.1%
- viability, T/C (second compound 1 µM, first compound 10 µM): 79.6%

- IC50 [1]: 2590 nM
- IC50 [2]: > 3000 nM
- IC50 [3]: 2110 nM
- IC50 [4]: 1140 nM
- IC50 [5]: 556 nM
- IC50 [6]: 158 nM
Structure (SMILES): Cn1cnc2c(F)c(Nc3ccc(Br)cc3Cl)c(C(=O)NOCCO)cc21 + CC(Nc1ccc2c(c1)OCCn1cc(N3C(=O)OCC3C(F)F)nc1-2)C(N)=O
- viability, T/C (second compound 0.00316 µM, first compound 0.00949 µM): 91.9%
- viability, T/C (second compound 0.00316 µM, first compound 0.03 µM): 94.6%
- viability, T/C (second compound 0.00316 µM, first compound 0.0949 µM): 80.4%
- viability, T/C (second compound 0.00316 µM, first compound 0.3 µM): 80.1%
- viability, T/C (second compound 0.00316 µM, first compound 0.949 µM): 75%
- viability, T/C (second compound 0.00316 µM, first compound 3 µM): 45.5%
- viability, T/C (second compound 0.01 µM, first compound 0.00949 µM): 99.4%
- viability, T/C (second compound 0.01 µM, first compound 0.03 µM): 92.8%
- viability, T/C (second compound 0.01 µM, first compound 0.0949 µM): 81.1%
- viability, T/C (second compound 0.01 µM, first compound 0.3 µM): 72.4%
- viability, T/C (second compound 0.01 µM, first compound 0.949 µM): 63.8%
- viability, T/C (second compound 0.01 µM, first compound 3 µM): 51.9%
- viability, T/C (second compound 0.0316 µM, first compound 0.00949 µM): 96.2%
- viability, T/C (second compound 0.0316 µM, first compound 0.03 µM): 92.9%
- viability, T/C (second compound 0.0316 µM, first compound 0.0949 µM): 83.8%
- viability, T/C (second compound 0.0316 µM, first compound 0.3 µM): 70.4%
- viability, T/C (second compound 0.0316 µM, first compound 0.949 µM): 62%
- viability, T/C (second compound 0.0316 µM, first compound 3 µM): 45%
- viability, T/C (second compound 0.1 µM, first compound 0.00949 µM): 90.8%
- viability, T/C (second compound 0.1 µM, first compound 0.03 µM): 83.3%
- viability, T/C (second compound 0.1 µM, first compound 0.0949 µM): 76.1%
- viability, T/C (second compound 0.1 µM, first compound 0.3 µM): 73.2%
- viability, T/C (second compound 0.1 µM, first compound 0.949 µM): 53.8%
- viability, T/C (second compound 0.1 µM, first compound 3 µM): 28.5%
- viability, T/C (second compound 0.316 µM, first compound 0.00949 µM): 86%
- viability, T/C (second compound 0.316 µM, first compound 0.03 µM): 82.8%
- viability, T/C (second compound 0.316 µM, first compound 0.0949 µM): 63.9%
- viability, T/C (second compound 0.316 µM, first compound 0.3 µM): 62.4%
- viability, T/C (second compound 0.316 µM, first compound 0.949 µM): 43.8%
- viability, T/C (second compound 0.316 µM, first compound 3 µM): 14.7%
- viability, T/C (second compound 1 µM, first compound 0.00949 µM): 72.8%
- viability, T/C (second compound 1 µM, first compound 0.03 µM): 57.3%
- viability, T/C (second compound 1 µM, first compound 0.0949 µM): 57.1%
- viability, T/C (second compound 1 µM, first compound 0.3 µM): 46.4%
- viability, T/C (second compound 1 µM, first compound 0.949 µM): 26.2%
- viability, T/C (second compound 1 µM, first compound 3 µM): 8.6%
